Data on 5 compounds can be found in patent publication US20110152212A1, “Aqueous Formulations” (priority 2007, published 2011).

Data set [1] in a line: Intrinsic solubility of drug. It counts as physicochemical. The source says:
(§1) J. Pharm 302(2005), 18-28 and S. I. F. Badaway et al, Int. J. Pharmaceut.128(1996), 45-54.

Data set [2] in a line: Solubility in 10% w/v hydroxypropyl cyclodextrin solution. It counts as physicochemical. The settings on record: for solubility: 10% w/v hydroxypropyl cyclodextrin solution, aqueous with cosolvent or surfactant or cyclodextrin, read-out: Solubility in 10% w/v Hydroxypropyl Cyclodextrin soln.
Text: as §1

Data set [3] in a line: Solubility in Example 7 formulation (hydrogel in 50:50 wt % water/ethanol). It counts as physicochemical. The settings on record: 50:50 wt % water/ethanol with polyvinylalcohol and butylidene polymer; for solubility: aqueous with cosolvent or surfactant or cyclodextrin.
Text: As an alternative to the general procedure described in Example 2 and the procedures described in other examples, a solvent may comprise a 50:50 wt % water/ethanol solution. The polyvinylalcohol and butylidene polymer may be included in such a solvent and the mixture may then be acidified to a pH of not less than 2.5 to cause polyvinylalcohol and butylidene polymer to react in an acid catalysed reaction. A drug of low solubility may then be added to the mixture as described in the other examples.
as §1

The nature of data set [4]: physchem. The settings on record: pH 2.5, aqueous with cosolvent or surfactant or cyclodextrin, thermodynamic from solid.
The conditions of data set [5]: aqueous formulation, Poval 220 polyvinylalcohol/butylidene polymer hydrogel (Example 3 process).
A short description of data set [6]: Time for solid drug to dissolve in acidified hydrogel mixture at ambient temperature with stirring. The format is physicochemical. The settings on record: 0.2 wt % drug in 0.5 wt % hydrogel, pH about 2.5, ambient temperature. Here is the method:
A 0.5 wt % formulation of a hydrogel was prepared comprising Poval 220 polyvinylalcohol and the butylidene polymer of Example 1 in the weight ratio 10:1. The pH of the mixture was lowered to about 2.5 by addition of hydrochloric acid and, with the pH at the lowered level, doxorubicin, a solid red powder, was added at ambient temperature with stirring to give a level of 0.2 wt % doxorubicin in the mixture. […] After the formulation has been prepared, the pH may be raised to about 7 by addition of alkali to neutralise it.
A 2 wt % formulation of a hydrogel was prepared comprising KH-20 polyvinylalcohol and the butylidene polymer of Example 1 in a weight ratio 10:1. The pH of the mixture was lowered to about 2.5, by addition of hydrochloric acid. Then, doxycycline, in a solid form, was added at ambient temperature with stirring to give a level of 0.5 wt % of doxycycline in the mixture. The doxycycline appeared to dissolve in the water within about 15 minutes to give a clear pale yellow mixture which appeared to comprise a solution but more likely comprises complexed doxycycline.

Converted amounts (≈) assume the structure as drawn.

As for `Clc1ccc(COC(Cn2ccnc2)c2ccc(Cl)cc2Cl)cc1` (stereo not drawn) [Econazole], the solubility in data set [1] came to 370 µg/mL (≈ 0.969 mM); in data set [2], 4990 µg/mL (≈ 13.1 mM); in data set [3], 12600 µg/mL (≈ 33 mM).

In data set [4], `COc1cccc2c1C(=O)c1c(O)c3c(c(O)c1C2=O)C[C@@](O)(C(=O)CO)C[C@@H]3O[C@H]1C[C@H](N)[C@H](O)[C@H](C)O1` [doxorubicin] gave a solubility of 115000 µg/mL (≈ 212 mM). The compound also displayed a saturation solubility in data set [5] of 11.5 % w/v. Also, the “appeared to dissolve in the water (time)” value in data set [6] is listed as “substantially instantaneously”.

For the compound `CC(C)c1cccc(C(C)C)c1O` [Propafol], in data set [1], the “Intrinsic Solubility” value was found to be 160 µg/mL. In addition, the “Solubility in 10% w/v Hydroxypropyl Cyclodextrin soln.” value in data set [2] came to 7690 µg/mL (≈ 43.1 mM). Besides, the “Example 7 formulation (solubility)” value in data set [3] was found to be 34800 µg/mL.

Turning to `Clc1ccccc1C(c1ccccc1)(c1ccccc1)n1ccnc1` [Clotrimazole], the “Intrinsic Solubility” value in data set [1] was 70 µg/mL. For the same compound, the solubility was determined as 1210 µg/mL (≈ 3.51 mM) in data set [2] and 11800 µg/mL (≈ 34.2 mM) in data set [3].

With `Clc1ccc(COC(Cn2ccnc2)c2ccc(Cl)cc2Cl)c(Cl)c1` (stereo not drawn) [Miconazole], the solubility in data set [1] came to 90 µg/mL (≈ 0.216 mM); in data set [2] it was 2460 µg/mL (≈ 5.91 mM); in data set [3], 4700 µg/mL (≈ 11.3 mM).
